Assay results from patent US12679878B2, “CRF2 receptor agonists and their use in therapy” (SANOFI, priority 2020, dated 2026).
Read-outs that look alike come from different tables or passages of the source. Starred links: 1 amine or outer side, 2 acyl side, 3 side chain; linkers in the order of their positions; H or OH if unused. Non-standard residues stand in square brackets, D forms with d. Residues, ends and D or L forms follow the SMILES beside them. Groups on a side chain read outwards from the residue. *: point of attachment. C18 diacid = O=C(O)CCCCCCCCCCCCCCCCC(=O)*; γGlu = O=C(O)[C@H](CCC(=O)[*:2])N[*:1]; AEEA = NCCOCCOCC(=O)O; Aib = CC(C)(N)C(=O)O

Experiments:
CRF1R receptor = target: T1, CRF1R receptor (Homo sapiens, UniProt P34998); assay: cAMP activity at anti-target CRF1R, CHO-K1 cell line clone 2 (Example 19.10); type: cell-based; settings: CRF1R CHO-K1 clone 2; for EC50: 0% HSA, read-out: EC50 [nM] 0% HSA; for Emax: 100% = Sauvagine at 100 nM
T1 construct: host or cells: CHO-K1 clone 2
T1 sequence (P34998 24-415): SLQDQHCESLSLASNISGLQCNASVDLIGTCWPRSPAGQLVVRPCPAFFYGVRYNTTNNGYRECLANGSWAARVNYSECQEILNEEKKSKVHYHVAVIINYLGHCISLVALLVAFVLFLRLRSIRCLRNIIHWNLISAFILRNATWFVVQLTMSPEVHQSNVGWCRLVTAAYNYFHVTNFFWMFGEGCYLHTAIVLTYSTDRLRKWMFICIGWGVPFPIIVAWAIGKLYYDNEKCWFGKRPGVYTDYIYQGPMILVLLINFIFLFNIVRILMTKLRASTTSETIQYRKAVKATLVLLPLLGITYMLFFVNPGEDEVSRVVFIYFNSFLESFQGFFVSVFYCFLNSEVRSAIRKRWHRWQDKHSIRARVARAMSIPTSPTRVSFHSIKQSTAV
In short: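 The cAMP read-out used the same protocol as the previous assay, except that Sauvagine at 100 nM set the 100% activation control. Cells were CHO-K1 clone 2 overexpressing CRF1R, cultured in F12 medium with 10% FBS and G418 and stored frozen until use.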

human CRF2α receptor = target: T2, human CRF2α receptor (Homo sapiens, UniProt Q13324); assay: cAMP agonism at human CRF2 α receptor in TeloHEAC cells (Example 7); type: cell-based; settings: cAMP HTRF, TeloHEAC cells stably expressing human CRF2 α
T2 construct: expressed in transfected cells; host or cells: TeloHEAC
T2 sequence (Q13324 1-411): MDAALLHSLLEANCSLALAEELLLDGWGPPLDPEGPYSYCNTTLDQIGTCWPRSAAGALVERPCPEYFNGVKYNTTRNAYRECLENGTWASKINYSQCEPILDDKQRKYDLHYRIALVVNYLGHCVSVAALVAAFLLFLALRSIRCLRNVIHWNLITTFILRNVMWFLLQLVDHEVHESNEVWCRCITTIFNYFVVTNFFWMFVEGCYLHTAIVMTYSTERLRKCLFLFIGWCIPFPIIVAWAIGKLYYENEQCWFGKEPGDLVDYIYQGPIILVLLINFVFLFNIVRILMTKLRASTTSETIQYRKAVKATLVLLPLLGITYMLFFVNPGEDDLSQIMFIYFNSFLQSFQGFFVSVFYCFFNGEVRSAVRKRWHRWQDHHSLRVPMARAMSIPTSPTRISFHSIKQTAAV
In short: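 Percent activation was referenced to 1000 nM UCN2 (100%), and EC50 values taken as concentrations giving half of maximal response. The read-out was a homogeneous time-resolved fluorescence cAMP kit, fluorescence ratio 665/620 nm. Thawed cells (2000/well) saw compound for 30 min at RT in buffer with 2 mM IBMX and 0%/0.1% HSA.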

[1] = 0% HSA, read-out: EC50 [nM], 0% HSA
[2] = 0.1% HSA, read-out: EC50 [nM], 0.1% HSA

Structure (SMILES)	EC50 (CRF1R receptor)	Emax (CRF1R receptor)	EC50 (human CRF2α receptor; [1])	EC50 (human CRF2α receptor; [2])
CC[C@H](C)[C@H](N)C(=O)N[C@H](C(=O)N[C@@H](CC(C)C)C(=O)N[C@@H](CO)C(=O)N[C@@H](CC(C)C)C(=O)N[C@@H](CC(=O)O)C(=O)N[C@H](C(=O)N1CCC[C@H]1C(=O)N[C@H](C(=O)N[C@@H](CCCCN)C(=O)N[C@@H](CC(C)C)C(=O)N[C@@H](CCCCNC(=O)COCCOCCNC(=O)COCCOCCNC(=O)CC[C@H](NC(=O)CCCCCCCCCCCCCCCCC(=O)O)C(=O)O)C(=O)N[C@@H](CCC(N)=O)C(=O)N[C@H](C(=O)N[C@@H](CC(C)C)C(=O)N[C@@H](CC(C)C)C(=O)N[C@@H](CCCCN)C(=O)N[C@@H](CCC(N)=O)C(=O)N[C@@H](CCC(=O)O)C(=O)N[C@@H](CCCNC(=N)N)C(=O)N[C@@H](CCC(N)=O)C(=O)N[C@@H](CCCCN)C(=O)N[C@@H](CCCCN)C(=O)N[C@@H](CCC(N)=O)C(=O)N[C@@H](CCCNC(=N)N)C(=O)N[C@@H](CCC(=O)O)C(=O)N[C@@H](CCCCN)C(=O)N[C@@H](C)C(=O)N[C@@H](CCCCN)C(=O)N[C@H](C(=O)N[C@@H](CC(N)=O)C(=O)NC(C)(C)C(=O)N[C@@H](CCC(N)=O)C(=O)N[C@H](C(=O)N[C@@H](CC(C)C)C(=O)N[C@@H](C)C(=O)N[C@@H](CCC(N)=O)C(=O)N[C@H](C(N)=O)C(C)C)[C@@H](C)CC)[C@@H](C)O)[C@@H](C)CC)[C@@H](C)CC)C(C)C)C(C)C [compound 88] (H-IVLSLDVPIKLK([AEEA-AEEA-γGlu-C18 diacid])QILLKQERQKKQREKAKTN[Aib]QILAQV-NH2; N-terminus assumed)	> 100 nM	2.3%	0.68 nM	25.7 nM
CC[C@H](C)[C@H](N)C(=O)N[C@H](C(=O)N[C@@H](CC(C)C)C(=O)N[C@@H](CO)C(=O)N[C@@H](CC(C)C)C(=O)N[C@@H](CC(=O)O)C(=O)N[C@@H](C(=O)N1CCC[C@H]1C(=O)N[C@H](C(=O)N[C@@H](CCCCN)C(=O)N[C@@H](CC(C)C)C(=O)N[C@@H](CCCCNC(=O)COCCOCCNC(=O)COCCOCCNC(=O)CC[C@H](NC(=O)CCCCCCCCCCCCCCCCC(=O)O)C(=O)O)C(=O)N[C@@H](CCC(N)=O)C(=O)N[C@H](C(=O)N[C@@H](CC(C)C)C(=O)N[C@@H](CC(C)C)C(=O)N[C@@H](CCCCN)C(=O)N[C@@H](CCC(N)=O)C(=O)N[C@@H](CCC(=O)O)C(=O)N[C@@H](CCCNC(=N)N)C(=O)N[C@@H](CCC(N)=O)C(=O)N[C@@H](CCCCN)C(=O)N[C@@H](CCCCN)C(=O)N[C@@H](CCC(N)=O)C(=O)N[C@@H](CCCNC(=N)N)C(=O)N[C@@H](CCC(=O)O)C(=O)N[C@@H](CCC(N)=O)C(=O)N[C@@H](C)C(=O)N[C@@H](CCC(=O)O)C(=O)N[C@H](C(=O)N[C@@H](CC(N)=O)C(=O)N[C@@H](CCCCN)C(=O)N[C@@H](CCC(N)=O)C(=O)N[C@H](C(=O)N[C@@H](CC(C)C)C(=O)N[C@@H](C)C(=O)N[C@@H](CCC(N)=O)C(=O)N[C@H](C(N)=O)C(C)C)[C@@H](C)CC)[C@@H](C)O)[C@@H](C)CC)[C@@H](C)CC)C(C)C)C(C)C [compound 102] (H-IVLSLD[dV]PIKLK([AEEA-AEEA-γGlu-C18 diacid])QILLKQERQKKQREQAETNKQILAQV-NH2; N-terminus assumed)	> 100 nM	9%	0.07 nM	
CC[C@H](C)[C@H](N)C(=O)N[C@H](C(=O)N[C@@H](CC(C)C)C(=O)N[C@@H](CO)C(=O)N[C@@H](CC(C)C)C(=O)N[C@@H](CC(=O)O)C(=O)N[C@H](C(=O)N1CCC[C@H]1C(=O)N[C@H](C(=O)N[C@@H](CCCCN)C(=O)N[C@@H](CC(C)C)C(=O)N[C@@H](CCCCNC(=O)COCCOCCNC(=O)COCCOCCNC(=O)CC[C@H](NC(=O)CCCCCCCCCCCCCCCCC(=O)O)C(=O)O)C(=O)N[C@@H](CCC(N)=O)C(=O)N[C@H](C(=O)N[C@@H](CC(C)C)C(=O)N[C@@H](CC(C)C)C(=O)N[C@@H](CCC(=O)O)C(=O)N[C@@H](CCC(N)=O)C(=O)N[C@@H](CCC(=O)O)C(=O)N[C@@H](CCCNC(=N)N)C(=O)N[C@@H](CCC(N)=O)C(=O)N[C@@H](CCCCN)C(=O)NC(C)(C)C(=O)N[C@@H](CCC(N)=O)C(=O)N[C@@H](CCCNC(=N)N)C(=O)N[C@@H](CCC(=O)O)C(=O)N[C@@H](CCC(N)=O)C(=O)N[C@@H](C)C(=O)N[C@@H](CCC(=O)O)C(=O)N[C@H](C(=O)N[C@@H](CC(N)=O)C(=O)N[C@@H](CCCCN)C(=O)N[C@@H](CCC(N)=O)C(=O)N[C@H](C(=O)N[C@@H](CC(C)C)C(=O)N[C@@H](C)C(=O)N[C@@H](CCC(N)=O)C(=O)N[C@H](C(N)=O)C(C)C)[C@@H](C)CC)[C@@H](C)O)[C@@H](C)CC)[C@@H](C)CC)C(C)C)C(C)C [compound 103] (H-IVLSLDVPIKLK([AEEA-AEEA-γGlu-C18 diacid])QILLEQERQK[Aib]QREQAETNKQILAQV-NH2)	> 100 nM	14%	0.84 nM	

Next, values leading:

EC50 (CRF1R receptor)	Emax (CRF1R receptor)	EC50 (human CRF2α receptor; [1])	EC50 (human CRF2α receptor; [2])	Structure (SMILES)
> 100 nM	3.7%	0.3 nM	15.6 nM	CC[C@H](C)[C@H](N)C(=O)N[C@H](C(=O)N[C@@H](CC(C)C)C(=O)N[C@@H](CO)C(=O)N[C@@H](CC(C)C)C(=O)N[C@@H](CC(=O)O)C(=O)N[C@H](C(=O)N1CCC[C@H]1C(=O)N[C@H](C(=O)N[C@@H](CCCCN)C(=O)N[C@@H](CC(C)C)C(=O)N[C@@H](CCCCNC(=O)COCCOCCNC(=O)COCCOCCNC(=O)CC[C@H](NC(=O)CCCCCCCCCCCCCCCCC(=O)O)C(=O)O)C(=O)N[C@@H](CCC(N)=O)C(=O)N[C@H](C(=O)N[C@@H](CC(C)C)C(=O)N[C@@H](CC(C)C)C(=O)N[C@@H](CCCCN)C(=O)N[C@@H](CCC(N)=O)C(=O)N[C@@H](CCC(=O)O)C(=O)N[C@@H](CCCNC(=N)N)C(=O)N[C@@H](CCC(N)=O)C(=O)N[C@@H](CCCCN)C(=O)N[C@@H](CCCCN)C(=O)N[C@@H](CCC(N)=O)C(=O)N[C@@H](CCCNC(=N)N)C(=O)N[C@@H](CCC(=O)O)C(=O)N[C@@H](CCC(N)=O)C(=O)N[C@@H](C)C(=O)N[C@@H](CCCCN)C(=O)N[C@H](C(=O)N[C@@H](CC(N)=O)C(=O)NC(C)(C)C(=O)N[C@@H](CCC(N)=O)C(=O)N[C@H](C(=O)N[C@@H](CC(C)C)C(=O)N[C@@H](C)C(=O)N[C@@H](CCC(N)=O)C(=O)N[C@H](C(N)=O)C(C)C)[C@@H](C)CC)[C@@H](C)O)[C@@H](C)CC)[C@@H](C)CC)C(C)C)C(C)C [compound 89] (H-IVLSLDVPIKLK([AEEA-AEEA-γGlu-C18 diacid])QILLKQERQKKQREQAKTN[Aib]QILAQV-NH2)
> 100 nM	2.3%	0.38 nM		CC[C@H](C)[C@H](N)C(=O)N[C@H](C(=O)N[C@@H](CC(C)C)C(=O)N[C@@H](CO)C(=O)N[C@@H](CC(C)C)C(=O)N[C@@H](CC(=O)O)C(=O)N[C@H](C(=O)N1CCC[C@H]1C(=O)N[C@H](C(=O)N[C@@H](CCCCN)C(=O)N[C@@H](CC(C)C)C(=O)N[C@@H](CCCCNC(=O)COCCOCCNC(=O)COCCOCCNC(=O)CC[C@H](NC(=O)CCCCCCCCCCCCCCCCC(=O)O)C(=O)O)C(=O)N[C@@H](CCC(N)=O)C(=O)N[C@H](C(=O)N[C@@H](CC(C)C)C(=O)N[C@@H](CC(C)C)C(=O)N[C@@H](CCCCN)C(=O)N[C@@H](CCC(N)=O)C(=O)N[C@@H](CCC(=O)O)C(=O)N[C@@H](CCCNC(=N)N)C(=O)N[C@@H](CCC(N)=O)C(=O)N[C@@H](CCCCN)C(=O)N[C@@H](CCCCN)C(=O)N[C@@H](CCC(=O)O)C(=O)N[C@@H](CCCNC(=N)N)C(=O)N[C@@H](CCC(=O)O)C(=O)N[C@@H](CCC(N)=O)C(=O)N[C@@H](C)C(=O)N[C@@H](CCC(=O)O)C(=O)N[C@H](C(=O)N[C@@H](CC(N)=O)C(=O)N[C@@H](CCCCN)C(=O)N[C@@H](CCC(N)=O)C(=O)N[C@H](C(=O)N[C@@H](CC(C)C)C(=O)N[C@@H](C)C(=O)N[C@@H](CCC(N)=O)C(=O)N[C@H](C(N)=O)C(C)C)[C@@H](C)CC)[C@@H](C)O)[C@@H](C)CC)[C@@H](C)CC)C(C)C)C(C)C [compound 96] (H-IVLSLDVPIKLK([AEEA-AEEA-γGlu-C18 diacid])QILLKQERQKKEREQAETNKQILAQV-NH2; N-terminus assumed)
